Data as given in PMC6770484, “Discovery of Orexant and Anorexant Agents with Indazole Scaffold Endowed with Peripheral Antiedema Activity” (Biomolecules, 2019).
Where two headings read alike, the source gives them in different places.

What was measured:
[1] = biological target: T1, cannabinoid receptors (CB1), rat brain membranes (Rattus norvegicus, UniProt P20272); test: [3H]WIN55212-2 radioligand competition binding assay
T1 construct: Crude membrane fractions were prepared from the brain; from tissue; host or cells: Wistar rat whole brain, crude membrane fraction
Protocol: (§1) Wistar rats were locally bred and handled according to the EU Directive 2010/63/EU and to the Regulations on Animal Protection (40/2013. (II. 14.) Korm. r.) of Hungary. Crude membrane fractions were prepared from the brain. Brains were quickly removed from the euthanized rats and directly put in an ice-cold 50 mM Tris–HCl buffer (pH 7.4). The collected tissue was then homogenized in 30 volumes (v/w) of an ice-cold buffer with a Braun Teflon-glass homogenizer at the highest rpm. The homogenate was centrifuged at 20,000× g for 25 min, and the resulting pellet was suspended in the same volume of a cold buffer followed by incubation at 37 °C for 30 min to remove endogenous ligands. Centrifugation was then repeated. The final pellets were taken up in five volumes of a 50 mM Tris–HCl (pH 7.4) buffer containing 0.32 M sucrose and stored at −80 °C. Prior to the experiment, aliquots were thawed and centrifuged at 20,000× g for 25 min and then they were resuspended in 50 mM Tris–HCl (pH 7.4), homogenized with a Douncer, followed by the determination of the protein concentration by the method of Bradford. The membrane suspensions were immediately used either in radioligand binding experiments or in [^35S]GTPγS functional assays.
Filtration was performed with a 24-well Brandel Cell Harvester (Gaithersburg, MD, USA). Filters were air-dried and immersed into Ultima Gold MV scintillation cocktail, and then radioactivity was measured with a TRI-CARB 2100TR liquid scintillation analyzer (Packard, Perkin Elmer, Waltham, MA, USA).

[2] = biological target: T2, CB1 receptor G protein activation, rat brain membranes (Rattus norvegicus, UniProt P20272); test: Ligand stimulated [35S]GTPγS binding assay; assay type: biochemical; conditions: for Emax: rat brain membranes, basal = 100%, mean ± S.E.M.
T2 construct: Crude membrane fractions were prepared from the brain; from tissue; host or cells: Wistar rat whole brain, crude membrane fraction
Protocol: as §1
Rat brain membranes (30 µg protein/tube), prepared as described above, were incubated with 0.05 nM of [^35S]GTPγS (PerkinElmer) and 10^−10–10^−5 M unlabeled ligands in the presence of 30 µM of GDP, 100 mM of NaCl, 3 mM of MgCl2 and 1 mM of EGTA in a 50 mM Tris–HCl buffer (pH 7.4) for 60 min at 30 °C. Basal [^35S]GTPγS binding was measured in the absence of ligands and set as 100%. Nonspecific binding was determined by the addition of 10 µM unlabeled GTPγS and subtracted from total binding. Incubation, filtration and radioactivity measurements of the samples were carried out as described above.
In [^35S]GTPγS binding studies, data were expressed as the percentage stimulation of the specific [^35S]GTPγS binding over the basal activity and are given as means ±S.E.M. Each experiment was performed in triplicate and analyzed with sigmoid dose–response curve fitting to obtain potency (EC50) and efficacy (Emax) values. All data and curves were analyzed by GraphPad Prism 5.0 (San Diego, CA, USA).

food intake = test: Feeding test (food intake); assay type: in vivo, CD-1 male mice; conditions: 10 mg/Kg i.p., fasted mice, 1-h test
From the text: (§2) The international and national law and policies approved by Italian Ministry of Health were used to comply with all animal care and experimental procedures. Animal studies were advised in compliance with the ARRIVE guidelines and with the recommendations made by EU Directive 2010/63/EU for animal experiments and the Basel declaration including the 3Rs concept. CD-1 male mice (10–14 weeks of age, 25–30 g of weight) were bought from Charles River (Milan, Italy). Shortly after their arrival and for at least one week, they were kept in an animal care facility under controlled standard conditions of temperature (21 ± 1 °C), light (from 7:00 AM to 7:00 PM), and relative humidity (60 ± 10%). Access to drinking water and food was assured. All procedures were performed to decrease the number of animals used (n = 6 per group) and their distress.
The test was carried out as previously described. At 24 h before the start of a feeding test, all food was removed from the home cages of mice to be tested. The next day and at least 1 h before the feeding test began, the mice were transported to the laboratory. On test days, the animals were placed in the home cages for 30 min of drug assimilation, during which food was not available. Then compounds were intraperitoneally administered (10 mg/kg). Mice were transferred into transparent and individual plastic cages with thick white paper lining the bottom and access to a pre-measured amount of their regular lab chow (2 gr) for the 1-h test. At the end of 1 h, mice were repositioned into their home cage. The amount of food left in the trial cage, including crumbs, was measured, and the amount consumed was calculated. Feeding trials normally happened on Tuesdays and Fridays between 12:00 and 14:00 h.

[3] = biological target: T2, CB1 receptor G protein activation, rat brain membranes; conditions: cited from earlier work; for [35S]GTPγS Binding Emax: basal = 100%; for EC50: read-out: [35S]GTPγS Binding EC50
[4] = biological target: T1, cannabinoid receptors (CB1), rat brain membranes; conditions: displacement of [3H]WIN55212-2, rat brain membranes; cited from earlier work
[5] = tested on: zymosan-induced thermal hyperalgesia; test: Zymosan-induced hyperalgesia (plantar test); assay type: in vivo, CD-1 male mice; conditions: 100 μg/20 μL s.c., after 3 h
From the text: as §2, with “All procedures were performed to decrease the number of animals used (n = 6 per group) and their distress.” left out
The compounds (100 µg) were administered subcutaneously in a volume of 20 µL in the dorsal surface of mice hind paw; this was done 15 min before a subcutaneous injection (20 μL/paw) of zymosan A (2.5% w/v in saline) into the same paw before the measurement of hyperalgesia. The sensitivity to a noxious heat stimulus was measured by the plantar test (Ugo Basile, Italy), in order to evaluate thermal hyperalgesia after the zymosan-induced inflammation of the mouse hind paw. […] Furthermore, on the test day, the animals were acclimatized to the experimental room 1 h before paw withdrawal latency (PWL) was calculated. […]

[6] = tested on: formalin-induced licking/biting; test: Formalin test; assay type: in vivo, CD-1 male mice; conditions: 100 μg/20 μL s.c., mice
From the text: as §2
Mice were located to adapt into the transparent cages individually (30 × 14 × 12 cm) for at least an hour before testing. They were injected with 20 μL of a 1% solution of formalin in saline. Then, the compounds were administered subcutaneously in the dorsal surface of the right hind paw of the mouse using a microsyringe with a 27-gauge needle for 15 min before. Compounds were prepared by freshly diluting saline containing 0.9% NaCl in the ratio DMSO:saline 1:3 (v/v). […] The total time the animal spent licking or biting its paw was calculated.

[7] = tested on: zymosan-induced paw edema; test: Edema induced by zymosan; assay type: in vivo, CD-1 male mice; conditions: 100 μg/20 μL s.c., for 24 h
From the text: as §2
In this test, 100 µg of the compounds were administered subcutaneously in a volume of 20 µL in the dorsal surface of mice hind paw; this was done 15 min before a subcutaneous injection (20 μL/paw) of zymosan A (2.5% w/v in saline) into the same paw. Then, paw edema was calculated as formerly described. […] Paw volume was quantified using a hydroplethysmometer modified for small volumes (Ugo Basile, Varese, Italy) three times before the injections and at 1, 2, 3, 4 and 24 h thereafter.

T1 sequence (P20272 whole entry): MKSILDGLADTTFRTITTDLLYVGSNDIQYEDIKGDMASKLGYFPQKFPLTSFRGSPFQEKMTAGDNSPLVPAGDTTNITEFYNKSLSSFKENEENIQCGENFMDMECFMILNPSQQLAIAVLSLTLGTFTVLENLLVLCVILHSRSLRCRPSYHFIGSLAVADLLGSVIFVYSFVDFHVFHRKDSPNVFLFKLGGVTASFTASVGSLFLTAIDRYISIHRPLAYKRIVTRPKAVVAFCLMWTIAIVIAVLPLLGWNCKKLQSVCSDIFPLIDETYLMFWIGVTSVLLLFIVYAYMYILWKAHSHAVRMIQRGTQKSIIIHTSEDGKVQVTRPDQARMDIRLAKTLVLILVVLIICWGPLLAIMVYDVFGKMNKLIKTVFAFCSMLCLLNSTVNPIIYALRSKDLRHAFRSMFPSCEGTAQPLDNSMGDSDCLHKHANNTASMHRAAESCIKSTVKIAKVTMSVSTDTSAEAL
T2 sequence (P20272 whole entry): as above

| Structure (SMILES) | Ki [1] [nM] | Emax [2] [%] | effect on food intake (food intake) | [35S]GTPγS Binding Emax [3] [%] | EC50 [3] [nM] | also measured |
| --- | --- | --- | --- | --- | --- | --- |
| CNC(=O)[C@@H](NC(=O)c1nn(Cc2ccc(Cl)cc2Cl)c2ccccc12)C(C)C [LONI10, (S)-1-(2,4-dichlorobenzyl)-N-(3-methyl-1-(methylamino)-1-oxobutan-2-yl)-1H-indazole-3-carboxamide] | 84 ± 3.4 | 100 ± 1.7 | – | – | – | – |
| CC(C)[C@H](NC(=O)c1nn(Cc2ccc(Cl)cc2Cl)c2ccccc12)C(=O)O [LONI4, (S)-2-(1-(2,4-dichlorobenzyl)-1H-indazole-3-carboxamido)-3-methylbutanoic acid] | – | – | reduce food intake | 82 ± 10.6 | > 1000 | – |
| CC(C)(C)[C@H](NC(=O)c1nn(Cc2ccc(Cl)cc2Cl)c2ccccc12)C(=O)O [LONI1, (S)-2-(1-(2,4-dichlorobenzyl)-1H-indazole-3-carboxamido)-3,3-dimethylbutanoic acid] | – | – | – | 84 ± 6.6 | > 1000 | – |
| CCCCCn1cc(C(=O)c2cccc3ccccc23)c2ccccc21 [JWH-018, reference compound] | – | – | – | 163 ± 5.2 | 16 ± 3 | Ki [4]: 3.5 ± 1 nM |
| CNC(=O)[C@H](CC(C)C)NC(=O)c1nn(Cc2ccc(Cl)cc2Cl)c2ccccc12 [LONI12, (S)-1-(2,4-dichlorobenzyl)-N-(4-methyl-1-(methylamino)-1-oxopentan-2-yl)-1H-indazole-3-carboxamide] | 320 ± 16 | 101 ± 1 | – | – | – | – |
| CNC(=O)[C@@H](NC(=O)c1nn(Cc2ccc(Cl)cc2Cl)c2ccccc12)C(C)(C)C [LONI11, (S)-1-(2,4-dichlorobenzyl)-N-(3,3-dimethyl-1-(methylamino)-1-oxobutan-2-yl)-1H-indazole-3-carboxamide] | 11 ± 1.2 | 151 ± 3 | increased the food intake | – | – | percent of paw latency (zymosan-induced hyperalgesia) [5]: about 50%; EC50 [2]: 200 ± 13 nM; potency in GTP-binding protein stimulation relative to WIN55,212 ([2]; compared with WIN55,212): three-fold less potency; antinociceptive effect in formalin test [6]: slight antinociceptive effect; percent of paw volume (zymosan-induced edema) [7]: 100% |
| CC(C)(C)[C@H](NC(=O)c1nn(Cc2ccc(Cl)cc2Cl)c2ccccc12)C(N)=O [LONI3, (S)-N-(1-amino-3,3-dimethyl-1-oxobutan-2-yl)-1-(2,4-dichlorobenzyl)-1H-indazole-3-carboxamide] | – | – | – | 139 ± 4.5 | 126 | – |
| Cc1c(C(=O)NN2CCCCC2)nn(-c2ccc(Cl)cc2Cl)c1-c1ccc(Cl)cc1 [rimonabant, 5-(4-chlorophenyl)-1-(2,4-dichloro-phenyl)-4-methyl-N-(piperidin-1-yl)-1H-pyrazole-3-carboxamide, reference compound] | – | – | reduce food intake | – | – | – |
| COC(=O)[C@@H](NC(=O)c1nn(Cc2ccc(Cl)cc2Cl)c2ccccc12)C(C)(C)C [LONI2, (S)-methyl-2-(1-(2,4-dichlorobenzyl)-1H-indazole-3-carboxamido)-3,3-dimethylbutanoate] | – | – | reduce food intake | 143 ± 5.7 | 8.4 | – |
